Laboratory results from patent publication US20210147498A1, “USE OF GRAM-NEGATIVE LYSIN-ANTIMICROBIAL PEPTIDE (AMP) POLYPEPTIDE CONSTRUCTS IN PULMONARY SURFACTANT AND BIOFILMS” (priority 2018, published 2021).
Read-outs that look alike come from different tables or passages of the source.

What was measured:
[1] = system: P. aeruginosa (strain WC-452); assay: 21-day serial passage resistance assay; assay type: cell-based, Pseudomonas aeruginosa; settings: CAA broth, over 18 days of serial passage
Description: The well with the highest concentration of GN lysin in which bacterial growth was seen was then used as the inoculum for the next day's passage, and the process was repeated over a 21 day period. The MIC at each daily time-point was recorded, and resistance was measured as a step-wise increase in MIC.

P. aeruginosa = assay: MIC by modified CLSI broth microdilution in CAA media, CAA with human serum or with Survanta; assay type: cell-based; settings: Pseudomonas aeruginosa
From the text: 2015. […] Clinical and Laboratory Standards Institute, Wayne, Pa.

[2] = system: carbapenem-resistant P. aeruginosa strains; assay: microbe, parasite or virus in culture; assay type: cell-based, Pseudomonas aeruginosa; settings: for MIC: Pseudomonas aeruginosa; for MIC Combination / MIC Alone: vs. WC-452
Description: Such resensitization may be determined by combining the present lysins or lysin-AMP polypeptide constructs with an antibiotic in a checkerboard assay as described herein. Antibiotic-resistant bacteria, such as carbapenem-resistant P. aeruginosa, are added to the lysin or lysin-AMP polypeptide construct combination. […] See Clinical and Laboratory Standards Institute (CLSI), CLSI. […] M100 Performance Standards for Antimicrobial Susceptibility Testing; 29th Edition. Clinical and Laboratory Standards Institute, Wayne, Pa., which is herein incorporated by reference in its entirety.
Up to seven carbapenem-resistant isolates were assessed. […] See Clinical and Laboratory Standards Institute (CLSI), CLSI. […] M100 Performance Standards for Antimicrobial Susceptibility Testing; 29th Edition. Clinical and Laboratory Standards Institute, Wayne, Pa.

O=C(O)c1cn(C2CC2)c2cc(N3CCNCC3)c(F)cc2c1=O [Ciprofloxacin]
16 fold: increase of MIC during serial passage [1]

C[C@@H](O)[C@H]1C(=O)N2C(C(=O)O)=C(S[C@@H]3CN[C@H](C(=O)N(C)C)C3)[C@H](C)[C@H]12 [Meropenem, meropenem]
16 mg/L: MIC Alone ([2]; checkerboard MEM + GN351) | MIC Alone ([2]; checkerboard MEM + GN428)
< 0.25 µg/mL: MIC (P. aeruginosa; read-out: Meropenem MIC (μg/mL), strain CFS 1669 (PA41))
8 µg/mL: MIC (P. aeruginosa; read-out: Meropenem MIC (μg/mL), strain CFS 1541 (PA3))
1 mg/L: MIC Combination ([2]; MEM combined with GN351) | MIC Combination ([2]; MEM combined with GN428)
> 32 µg/mL: MIC (P. aeruginosa; read-out: Meropenem MIC (μg/mL), […])
16 µg/mL: MIC (P. aeruginosa; PA1, read-out: Meropenem MIC (μg/mL), strain CFS 1539 (PA1)) | MIC ([2]; GN121, read-out: MIC (μg/mL) Alone, isolate PA20, checkerboard Meropenem + GN121) | MIC ([2]; GN121, read-out: MIC (μg/mL) Alone, isolate PA22, checkerboard Meropenem + GN121) | MIC ([2]; GN121, read-out: MIC (μg/mL) Alone, isolate PA23, checkerboard Meropenem + GN121) | MIC ([2]; GN121, read-out: MIC (μg/mL) Alone, isolate WC-452, checkerboard Meropenem + GN121) | MIC ([2]; GN123, read-out: MIC (μg/mL) Alone, isolate PA20, checkerboard MEROPENEM + GN123) | MIC ([2]; GN123, read-out: MIC (μg/mL) Alone, isolate PA22, checkerboard MEROPENEM + GN123) | MIC ([2]; GN123, read-out: MIC (μg/mL) Alone, isolate PA23, checkerboard MEROPENEM + GN123) | MIC ([2]; GN123, read-out: MIC (μg/mL) Alone, isolate WC-452, checkerboard MEROPENEM + GN123)
4 µg/mL: MIC (P. aeruginosa; read-out: Meropenem MIC (μg/mL), strain CFS 1674 (PA46)) | MIC (P. aeruginosa; read-out: Meropenem MIC (μg/mL), strain CFS 1675 (PA47))
1 µg/mL: MIC (P. aeruginosa; ATCC27853, read-out: Meropenem MIC (μg/mL), strain CFS 1766 (ATCC 27853)) | MIC (P. aeruginosa; read-out: Meropenem MIC (μg/mL), strain CFS 1597 (PA27)) | MIC (μg/mL) Combination ([2]; isolate PA19, Meropenem combined with GN121) | MIC (μg/mL) Combination ([2]; isolate PA20, Meropenem combined with GN121) | MIC (μg/mL) Combination ([2]; isolate PA21, MEROPENEM combined with GN123) | MIC (μg/mL) Combination ([2]; isolate PA22, MEROPENEM combined with GN123) | MIC (μg/mL) Combination ([2]; isolate PA22, Meropenem combined with GN121) | MIC (μg/mL) Combination ([2]; isolate PA24, Meropenem combined with GN121) | MIC (μg/mL) Combination ([2]; isolate WC-452, MEROPENEM combined with GN123) | MIC (μg/mL) Combination ([2]; isolate WC-452, Meropenem combined with GN121)
0.5 µg/mL: MIC (P. aeruginosa; ATCC17646, read-out: Meropenem MIC (μg/mL), strain CFS 1109 (ATCC 17646)) | MIC (P. aeruginosa; read-out: Meropenem MIC (μg/mL), strain CFS 1596 (PA26)) | MIC (μg/mL) Combination ([2]; isolate PA19, MEROPENEM combined with GN123) | MIC (μg/mL) Combination ([2]; isolate PA20, MEROPENEM combined with GN123) | MIC (μg/mL) Combination ([2]; isolate PA23, MEROPENEM combined with GN123)
(S) ((S) = sensitive): susceptibility category of the isolate, carbapenem in Combination ([2]; isolate PA19, combined with GN123) | susceptibility category of the isolate, carbapenem in Combination ([2]; isolate PA20, combined with GN123) | susceptibility category of the isolate, carbapenem in Combination ([2]; isolate PA21, combined with GN123) | susceptibility category of the isolate, carbapenem in Combination ([2]; isolate PA22, combined with GN123) | susceptibility category of the isolate, carbapenem in Combination ([2]; isolate PA23, combined with GN123) | susceptibility category of the isolate, carbapenem in Combination ([2]; isolate PA24, combined with GN123) | susceptibility category of the isolate, carbapenem in Combination ([2]; isolate WC-452, combined with GN123) | susceptibility category of the isolate, carbapenem in Combination ([2]; isolate WC-452, combined with GN351) | susceptibility category of the isolate, carbapenem in Combination ([2]; isolate WC-452, combined with GN370) | susceptibility category of the isolate, carbapenem in Combination ([2]; isolate WC-452, combined with GN428)
0.5 mg/L: MIC Combination ([2]; MEM combined with GN370)
32 µg/mL: MIC ([2]; GN121, read-out: MIC (μg/mL) Alone, isolate PA19, checkerboard Meropenem + GN121) | MIC ([2]; GN121, read-out: MIC (μg/mL) Alone, isolate PA21, checkerboard Meropenem + GN121) | MIC ([2]; GN121, read-out: MIC (μg/mL) Alone, isolate PA24, checkerboard Meropenem + GN121) | MIC ([2]; GN123, read-out: MIC (μg/mL) Alone, isolate PA19, checkerboard MEROPENEM + GN123) | MIC ([2]; GN123, read-out: MIC (μg/mL) Alone, isolate PA21, checkerboard MEROPENEM + GN123) | MIC ([2]; GN123, read-out: MIC (μg/mL) Alone, isolate PA24, checkerboard MEROPENEM + GN123)
2 µg/mL: MIC (μg/mL) Combination ([2]; isolate PA21, Meropenem combined with GN121) | MIC (μg/mL) Combination ([2]; isolate PA23, Meropenem combined with GN121) | MIC (μg/mL) Combination ([2]; isolate PA24, MEROPENEM combined with GN123)
(R) ((R) = resistant): susceptibility category of the isolate, carbapenem Alone ([2]; isolate PA19) | susceptibility category of the isolate, carbapenem Alone ([2]; isolate PA20) | susceptibility category of the isolate, carbapenem Alone ([2]; isolate PA21) | susceptibility category of the isolate, carbapenem Alone ([2]; isolate PA22) | susceptibility category of the isolate, carbapenem Alone ([2]; isolate PA23) | susceptibility category of the isolate, carbapenem Alone ([2]; isolate PA24) | susceptibility category of the isolate, carbapenem Alone ([2]; isolate WC-452)
